Legend:
Assay type in all cases: in vivo
[1] = tested on: barnyardgrass (Echinochloa crus-galli); assay: Test A pre-/postemergence greenhouse herbicide test, visual injury rating 0-100
Procedure, shortened: (§1)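 Visual injury versus untreated controls, scored about 10 days after treatment on a 0 to 100 scale (0 = no effect, 100 = complete control). Applications were preemergence directed soil spray plus postemergence spray at one- to two-leaf stage, 2 to 10 cm plants.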

[2] = tested on: corn (Zea mays); assay: as above
Procedure, shortened: as §1

[3] = tested on: giant foxtail (Setaria faberii); assay: as above
Procedure, shortened: as §1

[4] = tested on: large (Lg) crabgrass (Digitaria sanguinalis); assay: as above
Procedure, shortened: as §1

[5] = tested on: morningglory (Ipomoea spp.); assay: as above
Procedure, shortened: as §1

[6] = tested on: pigweed (Amaranthus retroflexus); assay: as above
Procedure, shortened: as §1

[7] = tested on: velvetleaf (Abutilon theophrasti); assay: as above
Procedure, shortened: as §1

[8] = tested on: wheat (Triticum aestivum); assay: as above
Procedure, shortened: as §1

[9] = tested on: barnyardgrass (Echinochloa crus-galli); assay: Test B flooded paddy test, plant response rating 0-100; settings: Flood, 250 g ai/ha; scale 0 to 100 (0 no effect, 100 complete control); 13 to 15 days
Excerpt: (§2) At time of treatment, test pots were flooded to 3 cm above the soil surface, treated by application of test compounds directly to the paddy water, and then maintained at that water depth for the duration of the test. Treated plants and controls were maintained in a greenhouse for 13 to 15 days, after which time all species were compared to controls and visually evaluated. […] A dash (-) response means no test result.

[10] = tested on: ducksalad (Heteranthera limosa); assay: as above; settings: Flood, 250 g ai/ha; scale 0 to 100 (0 no effect, 100 complete control); 13 to 15 days
Excerpt: as §2

[11] = tested on: rice (Oryza sativa); assay: as above; settings: Flood, 250 g ai/ha; scale 0 to 100 (0 no effect, 100 complete control); 13 to 15 days
Excerpt: as §2

[12] = tested on: sedge, umbrella (small-flower umbrella sedge, Cyperus difformis); assay: as above; settings: Flood, 250 g ai/ha; scale 0 to 100 (0 no effect, 100 complete control); 13 to 15 days
Excerpt: as §2

Compound	Plant response rating (0 to 100 scale), Barnyardgrass ([1]; Postemergence, 125 g ai/ha)	Plant response rating (0 to 100 scale), Barnyardgrass ([1]; Postemergence, 500 g ai/ha)	Barnyardgrass plant response rating (0 = no effect, 100 = complete control) ([1]; Preemergence, 125 g ai/ha)	Plant response rating (0 to 100 scale), Barnyardgrass ([1]; Preemergence, 500 g ai/ha)	Corn plant response rating (0 = no effect, 100 = complete control) ([2]; Preemergence, 125 g ai/ha)	Plant response rating (0 to 100 scale), Corn ([2]; Preemergence, 500 g ai/ha)	Plant response rating (0 to 100 scale), Foxtail, Giant ([3]; Postemergence, 125 g ai/ha)	Plant response rating (0 to 100 scale), Foxtail, Giant ([3]; Postemergence, 500 g ai/ha)	Foxtail, Giant plant response rating (0 = no effect, 100 = complete control) ([3]; Preemergence, 125 g ai/ha)	Plant response rating (0 to 100 scale), Foxtail, Giant ([3]; Preemergence, 500 g ai/ha)	Plant response rating (0 to 100 scale), Crabgrass, Large ([4]; Postemergence, 125 g ai/ha)	Plant response rating (0 to 100 scale), Crabgrass, Large ([4]; Postemergence, 500 g ai/ha)	Crabgrass, Large plant response rating (0 = no effect, 100 = complete control) ([4]; Preemergence, 125 g ai/ha)	Plant response rating (0 to 100 scale), Crabgrass, Large ([4]; Preemergence, 500 g ai/ha)	Plant response rating (0 to 100 scale), Morningglory ([5]; Postemergence, 125 g ai/ha)	Plant response rating (0 to 100 scale), Morningglory ([5]; Postemergence, 500 g ai/ha)	Morningglory plant response rating (0 = no effect, 100 = complete control) ([5]; Preemergence, 125 g ai/ha)	Plant response rating (0 to 100 scale), Morningglory ([5]; Preemergence, 500 g ai/ha)	Plant response rating (0 to 100 scale), Pigweed ([6]; Postemergence, 125 g ai/ha)	Plant response rating (0 to 100 scale), Pigweed ([6]; Postemergence, 500 g ai/ha)	also measured
C=CCn1cc(C(=O)c2cccnc2)c(-c2cc(Cl)cc(Cl)c2)n1 [Compound 8]	0	0	0	0	0	0	0	0	0	0	0	0	0	0	0	0	0	0	30	60	Plant response rating (0 to 100 scale), Corn ([2]; Postemergence, 125 g ai/ha): 0; Plant response rating (0 to 100 scale), Corn ([2]; Postemergence, 500 g ai/ha): 0; Pigweed plant response rating (0 = no effect, 100 = complete control) ([6]; Preemergence, 125 g ai/ha): 0; Plant response rating (0 to 100 scale), Pigweed ([6]; Preemergence, 500 g ai/ha): 50; Plant response rating (0 to 100 scale), Velvetleaf ([7]; Postemergence, 125 g ai/ha): 10; Plant response rating (0 to 100 scale), Velvetleaf ([7]; Postemergence, 500 g ai/ha): 30; Velvetleaf plant response rating (0 = no effect, 100 = complete control) ([7]; Preemergence, 125 g ai/ha): 0; Plant response rating (0 to 100 scale), Velvetleaf ([7]; Preemergence, 500 g ai/ha): 0; Plant response rating (0 to 100 scale), Wheat ([8]; Postemergence, 125 g ai/ha): 0; Plant response rating (0 to 100 scale), Wheat ([8]; Postemergence, 500 g ai/ha): 0; Wheat plant response rating (0 = no effect, 100 = complete control) ([8]; Preemergence, 125 g ai/ha): 0; Plant response rating (0 to 100 scale), Wheat ([8]; Preemergence, 500 g ai/ha): 0; Plant response rating, Barnyardgrass [9]: 0; Plant response rating, Ducksalad [10]: 0; Plant response rating, Rice [11]: 0; Plant response rating, Sedge, Umbrella [12]: 0
C#CCn1cc(C(=O)c2cccnc2)c(-c2cc(Cl)cc(Cl)c2)n1 [Compound 9]	0	10	0	0	0	0	0	0	0	20	0	0	0	10	0	0	0	0	60	80	Pigweed plant response rating (0 = no effect, 100 = complete control) ([6]; Preemergence, 125 g ai/ha): 60; Plant response rating (0 to 100 scale), Pigweed ([6]; Preemergence, 500 g ai/ha): 90; Plant response rating (0 to 100 scale), Velvetleaf ([7]; Postemergence, 125 g ai/ha): 50; Plant response rating (0 to 100 scale), Velvetleaf ([7]; Postemergence, 500 g ai/ha): 60; Velvetleaf plant response rating (0 = no effect, 100 = complete control) ([7]; Preemergence, 125 g ai/ha): 0; Plant response rating (0 to 100 scale), Velvetleaf ([7]; Preemergence, 500 g ai/ha): 80; Plant response rating (0 to 100 scale), Wheat ([8]; Postemergence, 125 g ai/ha): 0; Plant response rating (0 to 100 scale), Wheat ([8]; Postemergence, 500 g ai/ha): 0; Wheat plant response rating (0 = no effect, 100 = complete control) ([8]; Preemergence, 125 g ai/ha): 0; Plant response rating (0 to 100 scale), Wheat ([8]; Preemergence, 500 g ai/ha): 0; Plant response rating, Barnyardgrass [9]: 0; Plant response rating, Ducksalad [10]: 0; Plant response rating, Rice [11]: 0; Plant response rating, Sedge, Umbrella [12]: 0

Source: patent US10167262B2, “Herbicidal substituted 3-arylpyrazoles” (FMC CORPORATION, priority 2014, dated 2019)
